Data published in patent publication US10738028B2, “Spiro three-membered ring, spiro five-membered ring peptide deformylase inhibitor and use thereof in antibacteria and anti-tumor” (priority 2016, dated 2020).
≈ marks a conversion by molar mass, not a printed value.

Legend:
[1] = due to instability in metabolism in the body; cited from earlier work
[2] = system: HCT-116 colorectal cancer cell line; test: CCK-8 proliferation inhibition; type: cell-based; details: Homo sapiens, HCT-116, 72 h, read-out: HCT116 inhibition rate/%
In short: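 Growth inhibition is read by CCK-8 (1:10 dilution) after 72 h of compound exposure. HCT-116 cells grow in McCoy's 5A containing 10% newborn bovine serum at 2000 cells/well, with 1‰ DMSO as vehicle control.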

[3] = system: methemoglobin in blood samples of three healthy volunteers; test: Toxicity on methemoglobin in vitro (whole blood with S9 and NADPH, absorbance at 630 nm); type: cell-based, human; details: 500 μM compound; whole blood + S9 + NADPH; 5 hours at 37° C.
In short: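 Fresh EDTA whole blood from three healthy volunteers incubated 5 h at 37 °C with human liver S9 (2 mg/mL), NADPH-generating system and compound at 500 μM final. Lysed in 1% Triton X-100; MetHb % from 630 nm absorbance relative to ferricyanide-oxidized blood.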

[4] = system: Enterococcus faecalis (EFA); test: MIC, two-fold agar dilution (CLSI), clinical isolates; type: cell-based
In short: (§1)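 MIC values come from two-fold agar dilution run per CLSI antimicrobial susceptibility testing procedure.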

[5] = system: methicillin-sensitive Staphylococcus epidermidis (MSSE); test: as above; type: cell-based
In short: as §1

[6] = system: methicillin-resistant Staphylococcus aureus (MRSA); test: as above; type: cell-based
In short: as §1

[7] = system: methicillin-resistant Staphylococcus epidermidis (MRSE); test: as above; type: cell-based
In short: as §1

[8] = system: methicillin-sensitive Staphylococcus aureus (MSSA); test: as above; type: cell-based
In short: as §1

[9] = system: Escherichia coli (including ESBLs, non-ESBLs); test: as above; type: cell-based
In short: as §1

the test strains = test: MIC against the test strains (strain not given); type: cell-based; details: read-out: MIC (azole amide bioisosteres)
Text: 1. The invention adopts the two-fold agar dilution method recommended by the operating procedure of antimicrobial susceptibility testing set by American Clinical and Laboratory Standards Institute (CLSI) to determine the Minimum Inhibitory Concentration (MIC) of the test samples against the tested strains.

[10] = system: Enterococcus faecium (EFM); test: MIC, two-fold agar dilution (CLSI), clinical isolates; type: cell-based
In short: as §1

[11] = system: Streptococcus pneoumoniae (SPN); test: as above; type: cell-based
In short: as §1

[12] = system: Moraxella catarrhalis (BCA); test: as above; type: cell-based
In short: as §1

[13] = at a high dose; Clin. Pharmacol. Ther. 2011, 90, 256; cited from earlier work

In the case of `CCCCC[C@H](CC(=O)NO)C(=O)N[C@H](C(=O)N1CCC[C@H]1CO)C(C)C` [Actinonin], the activity in vivo [1] is given as “no activity in vivo”.

In the case of `CCCC[C@H](CN(O)C=O)C(=O)N1CC2(CC2)C[C@H]1c1nnc2ccccn12` [Example 13, N—((R)-2-((S)-6-([1,2,4]triazole[4,3-a]pyridin-3-yl)-5-azaspiro[2.4]heptane-5-carbonyl)hexyl)-N-hydroxyamide], the inhibition at 30 µM [2] is reported as 13%, the “MetHb % (n = 3)” value [3] is reported as 1.15 ± 0.06% and the MIC (anti-bacterial activity) ([4]; strain EFA 14-1) is reported as 4 µg/mL (≈ 10.4 µM). For the same compound, the MIC (anti-bacterial activity) ([4]; strain EFA 14-2) was 8 µg/mL (≈ 20.8 µM), the MIC (anti-bacterial activity) ([4]; strain EFA 14-3) was 8 µg/mL (≈ 20.8 µM) and the MIC (anti-bacterial activity) ([4]; strain EFA 14-5) was 8 µg/mL (≈ 20.8 µM). The MIC (anti-bacterial activity) ([5]; strain MSSE 14-1) was 0.25 µg/mL (≈ 0.649 µM), the MIC (anti-bacterial activity) ([5]; strain MSSE 14-2) was 0.5 µg/mL (≈ 1.3 µM) and the MIC (anti-bacterial activity) ([5]; strain MSSE 14-3) was 0.5 µg/mL (≈ 1.3 µM). For the same compound, the MIC (anti-bacterial activity) ([5]; strain MSSE 14-4) was 0.5 µg/mL (≈ 1.3 µM), the MIC (anti-bacterial activity) ([6]; strain MRSA 14-1) was 1 µg/mL (≈ 2.59 µM) and the MIC (anti-bacterial activity) ([6]; strain MRSA 14-2) was 1 µg/mL (≈ 2.59 µM). The MIC (anti-bacterial activity) ([6]; strain MRSA 14-4) was 1 µg/mL (≈ 2.59 µM), the MIC (anti-bacterial activity) ([6]; strain MRSA 14-5) was 1 µg/mL (≈ 2.59 µM) and the MIC (anti-bacterial activity) ([6]; strain printed MRSA 14-1 (second line of that name, r23, before MRSE 14-2)) was 0.5 µg/mL (≈ 1.3 µM). For the same compound, the MIC (anti-bacterial activity) ([7]; strain MRSE 14-2) was 0.5 µg/mL (≈ 1.3 µM), the MIC (anti-bacterial activity) ([7]; strain MRSE 14-3) was 0.25 µg/mL (≈ 0.649 µM) and the MIC (anti-bacterial activity) ([7]; strain MRSE 14-4) was 1 µg/mL (≈ 2.59 µM). It also gave an MIC (anti-bacterial activity) ([8]; strain MSSA 14-1) of 1 µg/mL (≈ 2.59 µM), an MIC (anti-bacterial activity) ([8]; strain MSSA 14-2) of 1 µg/mL (≈ 2.59 µM) and an MIC (anti-bacterial activity) ([8]; strain MSSA 14-3) of 1 µg/mL (≈ 2.59 µM). For the same compound, the MIC (anti-bacterial activity) ([8]; strain MSSA 14-4) was 1 µg/mL (≈ 2.59 µM), the MIC (anti-bacterial activity) ([9]; strain ECO+ 14-1) was 2 µg/mL (≈ 5.19 µM) and the MIC (anti-bacterial activity) ([9]; strain ECO+ 14-2) was 128 µg/mL (≈ 332 µM). It also gave an MIC (anti-bacterial activity) ([9]; strain ECO− 14-1) of 128 µg/mL (≈ 332 µM), an MIC (anti-bacterial activity) ([9]; strain ECO− 14-2) of 128 µg/mL (≈ 332 µM) and an MIC (the test strains) of 0.5 to 2 µg/mL (≈ 1.3 to 5.19 µM).

In the case of `CCCC[C@H](CN(O)C=O)C(=O)N1CCC[C@H]1C(=O)Nc1ccc(F)c[n+]1[O-]` [LBM415, reference compound], the “MetHb % (n = 3)” value [3] is reported as 3.05 ± 0.01%, the Anti-bacterial activity (MIC) ([4]; strain EFA 15-1) is reported as 2 µg/mL and the Anti-bacterial activity (MIC) ([4]; strain EFA 15-2) is reported as 2 µg/mL. For the same compound, the Anti-bacterial activity (MIC) ([4]; strain EFA 15-3) was 2 µg/mL, the Anti-bacterial activity (MIC) ([4]; strain EFA 15-4) was 2 µg/mL and the Anti-bacterial activity (MIC) ([4]; strain EFA 15-5) was 2 µg/mL. The Anti-bacterial activity (MIC) ([4]; strain EFA 15-6) was 128 µg/mL, the Anti-bacterial activity (MIC) ([4]; strain EFA 15-9) was 128 µg/mL and the Anti-bacterial activity (MIC) ([5]; strain MSSE 15-3) was 0.06 µg/mL. It also gave an Anti-bacterial activity (MIC) ([5]; strain MSSE 15-4) of 0.5 µg/mL, an Anti-bacterial activity (MIC) ([5]; strain MSSE 15-5) of 0.06 µg/mL and an Anti-bacterial activity (MIC) ([5]; strain MSSE 15-6) of 128 µg/mL. It also gave an MIC ([6]; Staphylococcus aureus, MRSA, range over strains, read-out: minimum inhibitory concentration MIC against methicillin-resistant Staphylococcus (MRSA)) of 0.5 to 1 µg/mL (≈ 1.26 to 2.52 µM), an Anti-bacterial activity (MIC) ([6]; strain MRSA 15-1) of 1 µg/mL and an Anti-bacterial activity (MIC) ([6]; strain MRSA 15-2) of 1 µg/mL. The Anti-bacterial activity (MIC) ([6]; strain MRSA 15-3) was 1 µg/mL, the Anti-bacterial activity (MIC) ([6]; strain MRSA 15-4) was 0.5 µg/mL and the Anti-bacterial activity (MIC) ([7]; strain MRSE 15-1) was 0.125 µg/mL. For the same compound, the Anti-bacterial activity (MIC) ([7]; strain MRSE 15-2) was 0.125 µg/mL, the Anti-bacterial activity (MIC) ([7]; strain MRSE 15-3) was 0.06 µg/mL and the Anti-bacterial activity (MIC) ([7]; strain MRSE 15-7) was 0.125 µg/mL. For the same compound, the Anti-bacterial activity (MIC) ([8]; strain MSSA 15-3) was 0.5 µg/mL, the Anti-bacterial activity (MIC) ([8]; strain MSSA 15-4) was 0.5 µg/mL and the Anti-bacterial activity (MIC) ([8]; strain MSSA 15-5) was 0.5 µg/mL. For the same compound, the Anti-bacterial activity (MIC) ([8]; strain MSSA 15-6) was 0.5 µg/mL, the Anti-bacterial activity (MIC) ([10]; strain EFM 15-1) was 2 µg/mL and the Anti-bacterial activity (MIC) ([10]; strain EFM 15-2) was 2 µg/mL. It also gave an Anti-bacterial activity (MIC) ([10]; strain EFM 15-3) of 4 µg/mL, an Anti-bacterial activity (MIC) ([10]; strain EFM 15-4) of 8 µg/mL and an Anti-bacterial activity (MIC) ([10]; strain EFM 15-5) of 4 µg/mL. The Anti-bacterial activity (MIC) ([10]; strain EFM 15-6) was 4 µg/mL, the Anti-bacterial activity (MIC) ([11]; strain SPN 16-2) was 2 µg/mL and the Anti-bacterial activity (MIC) ([11]; strain SPN 16-4) was 2 µg/mL. The MIC ([12]; Moraxella catarrhalis, 7 clinical isolates, range over strains, read-out: Moraxella catarrhalis (n = 7) MIC) was 0.5 to 2 µg/mL (≈ 1.26 to 5.05 µM), the Anti-bacterial activity (MIC) ([12]; strain BCA 14-1) was 2 µg/mL and the Anti-bacterial activity (MIC) ([12]; strain BCA 14-4) was 2 µg/mL. The Anti-bacterial activity (MIC) ([12]; strain BCA 14-5) was 1 µg/mL, the Anti-bacterial activity (MIC) ([12]; strain BCA 14-6) was 2 µg/mL and the Anti-bacterial activity (MIC) ([12]; strain BCA 14-7) was 0.5 µg/mL. It also gave an Anti-bacterial activity (MIC) ([12]; strain BCA 14-8) of 0.5 µg/mL, an Anti-bacterial activity (MIC) ([12]; strain BCA 14-10) of 0.5 µg/mL and an Anti-bacterial activity (MIC) ([9]; strain ECO+ 15-1) of 64 µg/mL. It also gave an Anti-bacterial activity (MIC) ([9]; strain ECO+ 15-2) of 64 µg/mL, an Anti-bacterial activity (MIC) ([9]; strain ECO+ 15-3) of 64 µg/mL and an Anti-bacterial activity (MIC) ([9]; strain ECO+ 15-4) of 64 µg/mL. For the same compound, the Anti-bacterial activity (MIC) ([9]; strain ECO− 15-1) was 64 µg/mL, the Anti-bacterial activity (MIC) ([9]; strain ECO− 15-2) was 64 µg/mL and the Anti-bacterial activity (MIC) ([9]; strain ECO− 15-3) was 64 µg/mL. The Anti-bacterial activity (MIC) ([9]; strain ECO− 15-4) was 64 µg/mL and the “adverse effect in Phase I clinical trial” value [13] was “could cause methemoglobinemia at a high dose”.
